Measured values reported in PMC6462819 (Science immunology, 2018).

Molecular target: T1, recombinant GSDMD (human, full-length) (Homo sapiens, UniProt P57764)
T1 sequence (P57764 1-484): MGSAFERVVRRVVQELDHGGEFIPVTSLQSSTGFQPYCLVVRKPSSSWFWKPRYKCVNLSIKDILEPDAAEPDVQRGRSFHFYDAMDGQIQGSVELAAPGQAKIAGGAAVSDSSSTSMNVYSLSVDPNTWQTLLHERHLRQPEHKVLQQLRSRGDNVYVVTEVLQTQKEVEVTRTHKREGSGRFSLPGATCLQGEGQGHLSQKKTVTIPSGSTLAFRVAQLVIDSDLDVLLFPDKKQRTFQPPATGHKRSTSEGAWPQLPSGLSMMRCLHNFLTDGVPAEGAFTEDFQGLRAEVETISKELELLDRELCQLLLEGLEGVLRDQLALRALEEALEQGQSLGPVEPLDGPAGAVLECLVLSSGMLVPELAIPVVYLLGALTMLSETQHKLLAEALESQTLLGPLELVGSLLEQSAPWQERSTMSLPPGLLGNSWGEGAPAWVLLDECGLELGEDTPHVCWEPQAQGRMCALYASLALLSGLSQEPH
Assay: surface plasmon resonance, Biacore T200
Assay type: binding

Kd: 32 ± 3.8 µM
SMILES: COc1nccnc1NS(=O)(=O)c1ccc(NC(=O)/C=C/c2ccc([N+](=O)[O-])s2)cc1 [necrosulfonamide]
